ID50, pKa and IC50 data for two compounds are collected here from ChEMBL document CHEMBL1124601, “Bifunctional antitumor compounds: synthesis and characterization of a Au(III)-streptonigrin complex with thiol-modulating properties” (J Med Chem, 1989).

The pKa is the pH at which an ionisable group is half protonated.

Series [1] has as its system P388. In words: In vitro concentration to inhibit the growth of P-388 leukemia cells. The format is functional, cell-based. To be noted: Mus musculus.
A short description of series [2]: The dissociation constant at pH 3 using potentiometric titration in 100 uM of compound in 0.15 M KCl at 25 degrees Centigrade. In kind it is ADME. To be noted: 0.15 M KCl solution.
Series [3] relates to P388. Description: Compound concentration was evaluated in vitro to inhibit the growth of P-388 leukemia cells. To be noted: Mus musculus, read-out: ID50 (the source's name). In kind it is functional.
A short description of series [4]: The dissociation constant of the free compound in 1: 1 dioxane-water mixture. In kind it is ADME.
Series [5] can be described thus: The dissociation constant at pH 8 using potentiometric titration in 100 uM of compound in 0.15 M KCl at 25 degree Centigrade. As to conditions: 0.15 M KCl solution. In kind it is ADME.

In brackets after ≈: the same amount, converted by molar mass.

Regarding “5-Amino-6-(7-amino-6-methoxy-5,8-dioxo-5,8-dihydro-quinolin-2-yl)-4-(2-hydroxy-3,4-dimethoxy-phenyl)-3-methyl-pyridine-2-carboxylic acid; compound with Gold”, the ID50 in the series with P388 [1] amounted to 0.05 µg/mL.
`COC1=C(N)C(=O)c2nc(-c3nc(C(=O)O)c(C)c(-c4ccc(OC)c(OC)c4O)c3N)ccc2C1=O` [STREPTONIGRIN]: the pKa at 100 µM turned out to be 4.7 in series [2] and 6.6 in series [5]. The IC50 with P388 [3] was 0.05 µg/mL (≈ 0.0987 µM). For the same compound, in series [4], the pKa came out at 6.5.
